Reference: patent US20250275953A1, “VODOBATINIB FOR REDUCING PROGRESSION OF PARKINSON'S DISEASE” (Sun Pharma Advanced Research Company Ltd., priority 2022, published 2025)
Like-named read-outs stand apart in the source and are kept apart here.

Experiments:
Abl (Q252H) = Abl (Q252H) (Homo sapiens, UniProt P00519, Q252H); experiment: Biochemical kinase assay, mutant Abl
Text: Conventional biochemical kinase assays, using radioactivity and fluorescence as readouts, were used to derive half maximal-inhibitory concentrations (IC50) values.

c-Abl = c-Abl (Homo sapiens, UniProt P00519); experiment: Competition binding KINOMEscan assay (DiscoverX); details: read-out: Kd, Binding Assay hAbl
Procedure: The binding affinity of vodobatinib to c-Abl was determined in a competition binding KINOMETM scan assay. […] Liganded beads were blocked with excess biotin, and washed with blocking buffer (SEA BLOCK Pierce), with 1% BSA, 0.05% Tween 20, 1 mM DTT) to remove unbound ligand and reduce non-specific binding. […] The kinase concentration in the eluates was measured by qPCR. The kinase concentrations in test compound treated wells were compared with that in the non-treated wells across the concentration range to generate the Kd values.

[1] = Plasma pharmacokinetics, 7 once-daily oral doses, healthy volunteers; type: in vivo, human; details: for Cmax / Tmax / AUC(0-t): male, human, plasma, oral
Procedure: After 28 days of screening, the subjects were studied in sequential cohorts of 6 subjects each. The study was conducted for 17 days. […] After the dose, subjects continued to fast for additional 4 hours, water was allowed ad libitum with the exception of 1 hour prior and 1-hour post dose.
The plasma and CSF samples were analyzed, by validated LC/MS-MS methods. PK analysis was conducted based on PK/PP Population: Cmax, AUC0-t, AUC0-24, AUC0-∞, Tmax, Cavg, CL/F, Cmin, t1/2, Kel, Vd (V/F; Vd/F), and Vss/F. Model-independent plasma PK parameters (Cmax, Tmax, t1/2, AUC0-t, AUC0-24, AUC0-∞, Cavg, CL/F, Vss/F, Vd/F), after the first dose (Day 1) and last dose (Day 7), Cmin on Days 2-7) was listed by subject and summarized by study cohort. In addition to the descriptive statistics listed above, geometric means was reported for the pivotal PK endpoints (CL/F, Vss/F, Vd/F, Cmin, Cavg, AUC0-t, AUC0-24, AUC0-∞, and Cmax). For CSF, PK parameters (Cmax, Tmax, t1/2, AUC0-t, AUC0-24, Cmin, Cavg, CL/F, Vss/F) was listed by subject and summarized by cohort. Ratios of CSF: plasma concentration at each time point was listed by subject and summarized by study cohort.
Forty-one healthy adult male volunteers aged 18 to 45 with body mass indexes (BMI)≥18 to ≤30 Kg/m^2 and total body weight >50 kg (110 lb) were screened in order to enroll 19 subjects with an average age of 34.2 years (range 21.5-45.6 years) into this study Six participants were randomly assigned to the 48 and 192 mg cohorts, and seven participants were assigned to the 384 mg cohort. After an overnight fast, participants received once daily doses of vodobatinib as capsules for 7 days. Serial PK blood samples to measure vodobatinib plasma concentrations were collected at pre-dose and at 0.25, 0.5, 1, 1.5, 2, 2.5, 3, 4, 6, 8, 12, 16 and 24 h post-dose after the first dose on Day 1 and the last dose on day 7. Additional PK samples prior to the morning doses were taken on Days 3-6. On the morning of Day 7, prior to dosing, an indwelling intrathecal catheter was inserted in the lumbar region (L3-L5). Serial CSF samples were collected through the catheter connected via peristaltic pump to a fraction collector. At each designated CSF collection time point, 8 mL of CSF was collected at a flow rate of 0.5 mL/min over a 16-min period at pre-dose, and 0.5, 1.0, 1.5, 2, 2.5, 3, 4, 6, 8, 12 and 24 h post-dose. The first 2 mL of CSF was discarded, and the remaining 6 mL was used for the vodobatinib assay. The occurrence of treatment-emergent adverse events (TEAEs) and serious AEs (SAEs) reported through the completion of study were collected.

[2] = 48 mg, Day 7, plasma, healthy volunteers
[3] = 192 mg, Day 1, plasma, healthy volunteers
[4] = 192 mg, Day 7, plasma, healthy volunteers
[5] = 384 mg, Day 1, plasma, healthy volunteers
[6] = 384 mg, Day 7, plasma, healthy volunteers

For Cc1ccc(C(=O)NNC(=O)c2c(C)cccc2Cl)cc1C#Cc1cnc2ccccc2c1 [N′-(2-chloro-6-methylbenzoyl)-4-methyl-3-[2-(3-quinolyl)ethynyl]-benzohydrazide], the IC50 (Abl (Q252H)) was 0.8 nM, the Kd (c-Abl) was 0.98 nM and the “AUC0-24 GM” value ([1]; 48 mg, Day 1, plasma, healthy volunteers) was 8691.6 ng·h/mL. The “AUC0-24 GM” value [1, 2] was 10346.9 ng·h/mL, the “Cmax GM” value [1, 2] was 1241.4 ng/mL and the “AUC0-24 GM” value [1, 3] was 33425.8 ng·h/mL. For the same compound, the “Cmax GM” value [1, 3] was 3550.7 ng/mL, the “AUC0-24 GM” value [1, 4] was 39138.2 ng·h/mL and the “Cmax GM” value [1, 4] was 5020.9 ng/mL. The “AUC0-24 GM” value [1, 5] was 35536.5 ng·h/mL, the “Cmax GM” value [1, 5] was 5387.1 ng/mL and the “AUC0-24 GM” value [1, 6] was 42124.5 ng·h/mL. For the same compound, the “Cmax GM” value [1, 6] was 6648.7 ng/mL, the “time within which peak plasma concentrations (Cmax) achieved” value ([1]; Day 1, across 48-384 mg cohorts) was 2.8 to 4.0 h and the Cmax ([1]; 48 mg, Day 1, plasma, Healthy Subjects, Table 10, read-out: Cmax Mean) was 1380 ng/mL. The Tmax ([1]; 48 mg, Day 1, plasma, Healthy Subjects, Table 10, read-out: Tmax median) was 2.8 h, the AUC(0-t) ([1]; 48 mg, Day 1, plasma, Healthy Subjects, read-out: AUC0-24 Mean) was 8870 ng·h/mL and the AUC(0-t) ([1]; 48 mg, Day 1, plasma, healthy volunteers, read-out: AUC0-24 AM) was 8870 ng·h/mL. For the same compound, the AUC(0-t) ([1]; 48 mg, Day 1, plasma, healthy volunteers, read-out: AUC0-24 GM) was 8690 ng·h/mL, the AUC(0-t) ([1]; 48 mg, Day 1, plasma, healthy volunteers, read-out: AUC0-24 Median) was 8880 ng·h/mL and the AUC(0-t) ([1]; 48 mg, Day 1, plasma, healthy volunteers, read-out: AUC0-24 Min, Max) was 5850 to 10800 ng·h/mL. For the same compound, the Cmax ([1]; 48 mg, Day 1, plasma, healthy volunteers, read-out: Cmax AM) was 1380 ng/mL, the Cmax ([1]; 48 mg, Day 1, plasma, healthy volunteers, read-out: Cmax GM) was 1330 ng/mL and the Cmax ([1]; 48 mg, Day 1, plasma, healthy volunteers, read-out: Cmax Median) was 1220 ng/mL. The Cmax ([1]; 48 mg, Day 1, plasma, healthy volunteers, read-out: Cmax Min, Max) was 1010 to 2000 ng/mL, the Tmax ([1]; 48 mg, Day 1, plasma, healthy volunteers, read-out: Tmax Median) was 2.8 h and the Tmax ([1]; 48 mg, Day 1, plasma, healthy volunteers, read-out: Tmax Min, Max) was 1.5 to 4 h. The Cmax ([1]; 48 mg, Day 7, plasma, Healthy Subjects, Table 10, read-out: Cmax Mean) was 1400 ng/mL, the Tmax ([1]; 48 mg, Day 7, plasma, Healthy Subjects, Table 10, read-out: Tmax median (range)) was 4 h and the AUC(0-t) ([1]; 48 mg, Day 7, plasma, Healthy Subjects, read-out: AUC0-24 Mean) was 12900 ng·h/mL. It also gave an AUC(0-t) ([1]; 48 mg, Day 7, plasma, healthy volunteers, read-out: AUC0-24 AM) of 12900 ng·h/mL, an AUC(0-t) ([1]; 48 mg, Day 7, plasma, healthy volunteers, read-out: AUC0-24 GM) of 10300 ng·h/mL and an AUC(0-t) ([1]; 48 mg, Day 7, plasma, healthy volunteers, read-out: AUC0-24 Median) of 11000 ng·h/mL. For the same compound, the AUC(0-t) ([1]; 48 mg, Day 7, plasma, healthy volunteers, read-out: AUC0-24 Min, Max) was 2970 to 29000 ng·h/mL, the Cmax ([1]; 48 mg, Day 7, plasma, healthy volunteers, read-out: Cmax AM) was 1400 ng/mL and the Cmax ([1]; 48 mg, Day 7, plasma, healthy volunteers, read-out: Cmax GM) was 1240 ng/mL. It also gave a Cmax ([1]; 48 mg, Day 7, plasma, healthy volunteers, read-out: Cmax Median) of 1340 ng/mL, a Cmax ([1]; 48 mg, Day 7, plasma, healthy volunteers, read-out: Cmax Min, Max) of 421 to 2380 ng/mL and a Tmax ([1]; 48 mg, Day 7, plasma, healthy volunteers, read-out: Tmax Median) of 4 h. It also gave a Tmax ([1]; 48 mg, Day 7, plasma, healthy volunteers, read-out: Tmax Min, Max) of 1.5 to 12 h, a Cmax ([1]; 192 mg, Day 1, plasma, Healthy Subjects, Table 10, read-out: Cmax Mean) of 3780 ng/mL and a Tmax ([1]; 192 mg, Day 1, plasma, Healthy Subjects, Table 10, read-out: Tmax median) of 3.5 h. The AUC(0-t) ([1]; 192 mg, Day 1, plasma, Healthy Subjects, read-out: AUC0-24 Mean) was 34500 ng·h/mL, the AUC(0-t) ([1]; 192 mg, Day 1, plasma, healthy volunteers, read-out: AUC0-24 AM) was 34500 ng·h/mL and the AUC(0-t) ([1]; 192 mg, Day 1, plasma, healthy volunteers, read-out: AUC0-24 GM) was 33400 ng·h/mL. The AUC(0-t) ([1]; 192 mg, Day 1, plasma, healthy volunteers, read-out: AUC0-24 Median) was 34700 ng·h/mL.
